What was measured:
Format in all cases: cell-based, human
[1] = system: SKMEL-28 cells; experiment: Immunoblot densitometry (LC3-II); conditions: 2.5 µM DDA; for LC3-II protein, densitometry relative to control: SKMEL-28, 24 h, 10 µM 22(R)HC, 100 nM TO; for LC3-II protein, densitometry relative to untreated / LC3-II protein, densitometry: 24 h
Protocol: (§1) Immunoblotting was carried out as described previously. Proteins were separated on SDS-PAGE gels, electro-transferred onto polyvinylidene difluoride membranes and incubated overnight at 4 °C with the following antibodies: anti-Atg3, anti-Atg5 (D1G9), anti-Atg7 (D12B11), anti-Beclin (D40C5), anti-caspase-3 (Cell Signaling), anti-Bcl-2 (Millipore), anti-Bax (Millipore), anti-LC3 (Sigma-Aldrich), anti-LXRα (SantaCruz), anti-LXRβ (SantaCruz), anti-Nur77 (Active motif), anti-NOR1 (R&D systems), anti-PARP (Cell Signaling), anti-Vps34 (Cell Signaling), or anti-Actin (Millipore). For visualization, an ECL plus kit (Amersham Biosciences) was used, and chemiluminescence was measured by autoradiography (Supplementary Fig. 9). Specific bands were quantified with ImageQuant software.

[2] = system: KG1 cells; experiment: Immunoblot densitometry; conditions: 5 µM DDA; for LC3-II protein, densitometry relative to control: KG1, 24 h, 2 µM TO, 2 µM GW, 10 µM 22(R)HC
Protocol: as §1
(§2) Supplementary Fig. 6. […]
D ata from b, f, g, h, j, p, q ar e the m eans ± S.E.M. of 3 independent experiments performed in triplicate (*P<0.05, **P<0.01, ***P<0.001, t test). Images are representative of 3 independent experim ents.
Supplementary Fig. 7. a Im munoblots of Nur77 and NOR1 proteins in cells treated or not for 24 h with 5 µM DDA. b Real-time PCR of Nur77 and NOR1 expression in KG1 cells stably transfected with control shRNA (clone shCTRL) or with shRNA against LXRβ (clones sh3LXRβ and sh4LXRβ) and treated with 10 µM DDA for 24 h. c Immunoblots of Nur77 and NOR1 protein expression in KG1 cells stably transfected with control shRNA (clone shCTRL), shRNA against Nur77 (shNur77), shRNA against NOR1 (shNOR1), or shRNAs against both Nur77 and NOR1 (shNur77 + shNOR1). d NOD/SCID mice
(n=16- 20 mice/group) engrafted with KG1 cells or HL60 cells were treated with DDA (20 mg/kg/day, i.p.) or solvent vehicle (control). Tumor growth was monitored over time and was analyzed for significance using repeated measures ANOVA (***P<0.001). The mean tumor volumes ± SEM are shown. e Average tumor weight at the end of the experiments in d. *P<0.5, **P<0.01, ANOVA. f Mean tumor volumes measured at the end of the experiments for HL60 and KG1 graf ted into NOD/SCID or NMRI-Fo x1 -nude mice treated with DDA (40 mg/kg/day, p.o. or 20 mg/kg/day, i.p.) or solvent vehicle (control) (n=10- 20 mice per group). Values represent the means ± S.E.M. (**P<0.01, ***P<0.001, ANOVA). g Histochemical analysis of the expression of LC3 and P62 in HL60 tumor sections isolated from NOD/SCID mice treated or not with DDA (20 mg/kg/day, i.p.). h Quantification of LC3 punctate cells in shCTRL and shLXRβ KG1 tumors. i Quantification of DDA levels in tumors 4 h after the final administration of DDA. j Box plot of TCGA RNA-seq data from patients with melanoma showing that LXRβ is the predominant LXR isoform expressed.
***P<0.001. k, l Immunoblotting of the indicated proteins in primary AML cells exposed to vehicle or 5 µM DDA for 24 h. m, n qPCR analysis of the expression of Nur77 and NOR1 in primary AML cells from 10 patients exposed to vehicle or DDA for 24 h. Bars represent S.E.M. (**P<0.01, ***P<0.001, t test). Data from b, h, i represent means ± S.E.M. of triplicate samples (>100 cell analyses per sample), **P<0.01, ***P<0.001, t test. All data or images are representative of 3 independent experiments.

[3] = system: HL60 cells; experiment: qRT-PCR of Nur77 and NOR1; conditions: HL60, 24 h; 5 µM DDA, 2 µM TO, 2 µM GW, 10 µM 22(R)HC
Protocol: (§3) Total RNA was extracted from tumor cells or MEFs using an RNA Extraction kit (Qiagen) or Trizol (Invitrogen), respectively, and was quantified with NanoDrop. Complementary DNA (cDNA) synthesis was performed with 1 μg RNA iScript Reverse Transcriptase (Bio-Rad). 25 ng cDNA was amplified using SyBR Supermix (Bio-Rad). RNA expression of the different genes of interest (Supplementary Tables 1, 2) were determined using the ΔΔCT method, where the difference in the threshold cycle (ΔCT) values of the target gene and the housekeeping gene for each sample was normalized to the ΔCT value of the untreated sample.
as §2
(§4) D ata are expressed relative to the control (solvent vehic le). D ata from b, f, g, h, j, p, q ar e the m eans ± S.E.M. of 3 independent experiments performed in triplicate (*P<0.05, **P<0.01, ***P<0.001, t test). Images are representative of 3 independent experim ents.

[4] = system: KG1 cells; experiment: qRT-PCR of Nur77 and NOR1; conditions: KG1, 24 h; 5 µM DDA, 2 µM TO, 2 µM GW, 10 µM 22(R)HC
Protocol: as §3, §2, §4

SMILES | LC3-II protein, densitometry relative to control [1] | LC3-II protein, densitometry relative to control [2] | NOR1 mRNA levels (Fold over control) [3] [fold] | Nur77 mRNA levels (Fold over control) [3] [fold] | NOR1 mRNA levels (Fold over control) [4] [fold] | Nur77 mRNA levels (Fold over control) [4] [fold] | other results
CC(C)CC[C@@H](O)[C@@H](C)[C@H]1CC[C@H]2[C@@H]3CC=C4C[C@@H](O)CC[C@]4(C)[C@H]3CC[C@]12C [22(R)HC, 22(R)-hydroxycholesterol] | 1 | 1.5 | 0.7 | 0.8 | 6.3 | 1.1 | 
CC(C)CCC[C@@H](C)[C@H]1CC[C@H]2[C@@H]3C[C@@H](NCCc4cnc[nH]4)[C@@]4(O)C[C@@H](O)CC[C@]4(C)[C@H]3CC[C@]12C [DDA, Dendrogenin A] | 2.5 | 8.3 | 6.3 | 11.2 | 12.2 | 8.8 | LC3-II protein, densitometry relative to untreated ([1]; SKMEL-28 sh3LXRβ): 2.1; LC3-II protein, densitometry relative to untreated ([1]; SKMEL-28 sh4LXRβ): 2.6; LC3-II protein, densitometry relative to untreated ([1]; SKMEL-28 shCTRL): 5.5; LC3-II protein, densitometry ([1]; SKMEL-28 siATG7): 1.1; LC3-II protein, densitometry ([1]; SKMEL-28 siBECN1): 1.3; LC3-II protein, densitometry ([1]; SKMEL-28 siNOR1 + siNur77): 3.2; LC3-II protein, densitometry ([1]; SKMEL-28 siNOR1): 2.2; LC3-II protein, densitometry ([1]; SKMEL-28 siNur77): 1.8; LC3-II protein, densitometry ([1]; SKMEL-28 siVPS34): 1.2; ATG3 protein, densitometry relative to vehicle ([2]; KG1, 24 h): 2.1; ATG5 protein, densitometry relative to vehicle ([2]; KG1, 24 h): 0.9; ATG7 protein, densitometry relative to vehicle ([2]; KG1, 24 h): 1.2; BECN1 protein, densitometry relative to vehicle ([2]; KG1, 24 h): 0.9; NOR1 protein, densitometry relative to untreated ([2]; KG1, 24 h): 3.1; Nur77 protein, densitometry relative to untreated ([2]; KG1, 24 h): 3.4
O=S(=O)(c1ccccc1)N(CC(F)(F)F)c1ccc(C(O)(C(F)(F)F)C(F)(F)F)cc1 [TO, TO901317] | 0.9 | 1.0 | 2.7 | 0.4 | 1.1 | 1.5 | 
O=C(O)Cc1cccc(OCCCN(Cc2cccc(C(F)(F)F)c2Cl)CC(c2ccccc2)c2ccccc2)c1 [GW, GW3965] |  | 0.8 | 0.3 | 1.3 | 1.8 | 0.8 | 
